≈ marks a conversion by molar mass, not a printed value. Bounds are passed on as bounds.

Holding throughout (assay type): functional
In one experiment the test system is Nannizzia gypsea. The experiment can be described thus: Antifungal activity against Microsporum gypseum by serial dilution method.
The next experiment concerns Candida albicans. In words: Antifungal activity against Candida albicans by serial dilution method.
Another experiment deals with Trichophyton rubrum. The experiment can be described thus: Antifungal activity against Trichophyton rubrum by serial dilution method.
Another experiment has as its system Cryptococcus neoformans. The experiment can be described thus: Antifungal activity against Cryptococcus neoformans by serial dilution method.
The next experiment concerns Aspergillus fumigatus. In words: Antifungal activity against Aspergillus fumigatus by serial dilution method.
The subject of the next experiment is Candida parapsilosis. The experiment can be described thus: Antifungal activity against Candida parapsilosis by serial dilution method. The note with it: Lodderomyces parapsilosis.
A further experiment deals with Candida tropicalis. The experiment can be described thus: Antifungal activity against Candida tropicalis by serial dilution method.

For the compound `Clc1cccc(Cl)c1SCc1cc2c(OCCCNCc3cccnc3)cccc2[nH]1`, the MIC80 (commonly an inhibitory concentration at the 80% level, which refers to growth in some studies and to a panel of isolates in others) was 4 µg/mL (≈ 8.47 µM) with Nannizzia gypsea; 64 µg/mL (≈ 135 µM) in the experiment with Candida albicans; 16 µg/mL (≈ 33.9 µM) with Trichophyton rubrum; 64 µg/mL (≈ 135 µM) in the experiment with Cryptococcus neoformans; more than 128 µg/mL in the experiment on Aspergillus fumigatus.

Turning to `Fc1ccc(OCc2nc3c(OCCCNCc4cccnc4)cccc3o2)cc1`, the MIC80 in the experiment on Candida parapsilosis is 1 µg/mL (≈ 2.45 µM); against Candida albicans, 16 µg/mL (≈ 39.3 µM); against Candida tropicalis, 1 µg/mL (≈ 2.45 µM); with Cryptococcus neoformans it was 16 µg/mL (≈ 39.3 µM); in the experiment with Aspergillus fumigatus it was more than 64 µg/mL.

Regarding `O=C(Nc1ccccc1Cl)c1cc2c(OCCCNCc3cccnc3)cccc2[nH]1`, the MIC80 against Nannizzia gypsea was 2 µg/mL (≈ 4.6 µM); in the experiment with Candida albicans it was more than 128 µg/mL; against Trichophyton rubrum, 128 µg/mL (≈ 294 µM); with Cryptococcus neoformans, more than 128 µg/mL; in the experiment on Aspergillus fumigatus, more than 128 µg/mL.

Regarding `Fc1cccc(F)c1OCc1nc2c(OCCCNCc3cccnc3)cccc2o1`, the MIC80 is 4 µg/mL (≈ 9.4 µM) in the experiment on Candida parapsilosis; 64 µg/mL (≈ 150 µM) against Candida albicans; 1 µg/mL (≈ 2.35 µM) in the experiment with Candida tropicalis; 64 µg/mL (≈ 150 µM) against Cryptococcus neoformans; more than 64 µg/mL in the experiment on Aspergillus fumigatus.

On to `O=C(Nc1ccccc1)c1cc2c(OCCCNCc3cccnc3)cccc2[nH]1`, for which the MIC80 in the experiment on Nannizzia gypsea is 32 µg/mL (≈ 79.9 µM); with Candida albicans, more than 128 µg/mL; against Trichophyton rubrum, 64 µg/mL (≈ 160 µM); against Cryptococcus neoformans, more than 128 µg/mL; against Aspergillus fumigatus, more than 128 µg/mL.

As to `CCOC(=O)c1cc2c(OCCCNCc3cccnc3)cccc2[nH]1`, the MIC80 with Nannizzia gypsea is 32 µg/mL (≈ 90.5 µM); in the experiment on Candida albicans, more than 128 µg/mL; against Trichophyton rubrum it was 64 µg/mL (≈ 181 µM); against Cryptococcus neoformans, more than 128 µg/mL; in the experiment with Aspergillus fumigatus, more than 128 µg/mL.

As to `Cc1c(COc2ccc(F)c(F)c2F)oc2cccc(OCCCNCc3cccnc3)c12`, the MIC80 against Candida parapsilosis came to 0.0625 µg/mL (≈ 0.137 µM); with Nannizzia gypsea, 2 µg/mL (≈ 4.38 µM); against Candida albicans, 0.125 µg/mL (≈ 0.274 µM); in the experiment on Trichophyton rubrum, 1 µg/mL (≈ 2.19 µM); against Candida tropicalis it was 0.125 µg/mL (≈ 0.274 µM); against Cryptococcus neoformans, 0.5 µg/mL (≈ 1.1 µM). The compound also yielded an MIC80 against Aspergillus fumigatus of 16 µg/mL (≈ 35.1 µM).

In the case of `Fc1ccccc1OCc1nc2c(OCCCNCc3cccnc3)cccc2o1`, the MIC80 is 1 µg/mL (≈ 2.45 µM) against Candida parapsilosis; 4 µg/mL (≈ 9.82 µM) in the experiment on Candida albicans; 0.0625 µg/mL (≈ 0.153 µM) against Candida tropicalis; 16 µg/mL (≈ 39.3 µM) against Cryptococcus neoformans; more than 64 µg/mL with Aspergillus fumigatus.

Turning to `c1ccc(OCc2nc3c(OCCCNCc4cccnc4)cccc3o2)cc1`, the MIC80 was 1 µg/mL (≈ 2.57 µM) in the experiment on Candida parapsilosis; 16 µg/mL (≈ 41.1 µM) with Candida albicans; 0.25 µg/mL (≈ 0.642 µM) in the experiment with Candida tropicalis; 64 µg/mL (≈ 164 µM) in the experiment with Cryptococcus neoformans; more than 64 µg/mL in the experiment with Aspergillus fumigatus.

For the compound `Fc1ccc(OCc2cc3c(OCCCNCc4cccnc4)cccc3[nH]2)cc1`, the MIC80 is 32 µg/mL (≈ 78.9 µM) with Nannizzia gypsea; more than 128 µg/mL against Candida albicans; 128 µg/mL (≈ 316 µM) in the experiment on Trichophyton rubrum; 128 µg/mL (≈ 316 µM) with Cryptococcus neoformans; more than 128 µg/mL in the experiment on Aspergillus fumigatus.

In the case of `OC(Cn1cncn1)(Cn1cncn1)c1ccc(F)cc1F` [FLUCONAZOLE], the MIC80 against Candida parapsilosis stood at 4 µg/mL (≈ 13.1 µM); in the experiment on Nannizzia gypsea, 16 µg/mL (≈ 52.2 µM); against Candida albicans it was 0.25 µg/mL (≈ 0.816 µM); with Trichophyton rubrum, 1 µg/mL (≈ 3.27 µM); with Candida tropicalis it was 4 µg/mL (≈ 13.1 µM); with Cryptococcus neoformans, 1 µg/mL (≈ 3.27 µM). The MIC80 against Aspergillus fumigatus was more than 64 µg/mL.

Consider `Fc1ccc(OCc2cc3c(OCCCNCc4cccnc4)cccc3[nH]2)c(F)c1`, for which the MIC80 is 8 µg/mL (≈ 18.9 µM) in the experiment with Nannizzia gypsea; more than 128 µg/mL in the experiment on Candida albicans; 32 µg/mL (≈ 75.6 µM) in the experiment with Trichophyton rubrum; 64 µg/mL (≈ 151 µM) against Cryptococcus neoformans; more than 128 µg/mL in the experiment on Aspergillus fumigatus.

`O=C(Nc1cccc(F)c1)c1cc2c(OCCCNCc3cccnc3)cccc2[nH]1`: the MIC80 against Nannizzia gypsea is 32 µg/mL (≈ 76.5 µM); against Candida albicans, 128 µg/mL (≈ 306 µM); with Trichophyton rubrum, 64 µg/mL (≈ 153 µM); with Cryptococcus neoformans, 128 µg/mL (≈ 306 µM); against Aspergillus fumigatus it was more than 128 µg/mL.

On to `Fc1ccc(OCc2nc3c(OCCCNCc4cccnc4)cccc3o2)c(F)c1F`, for which the MIC80 was 0.25 µg/mL (≈ 0.564 µM) against Candida parapsilosis; 0.25 µg/mL (≈ 0.564 µM) against Candida albicans; 0.25 µg/mL (≈ 0.564 µM) in the experiment with Candida tropicalis; 64 µg/mL (≈ 144 µM) with Cryptococcus neoformans; more than 64 µg/mL in the experiment on Aspergillus fumigatus.

`O=C(Nc1ccc(Cl)cc1)c1cc2c(OCCCNCc3cccnc3)cccc2[nH]1`: the MIC80 against Nannizzia gypsea was 32 µg/mL (≈ 73.6 µM); against Candida albicans, more than 128 µg/mL; against Trichophyton rubrum, 128 µg/mL (≈ 294 µM); against Cryptococcus neoformans it was more than 128 µg/mL; in the experiment on Aspergillus fumigatus it was more than 128 µg/mL.

For the compound `O=[N+]([O-])c1cccc(OCc2nc3c(OCCCNCc4cccnc4)cccc3o2)c1`, the MIC80 against Candida parapsilosis was 4 µg/mL (≈ 9.21 µM); in the experiment on Candida albicans, more than 64 µg/mL; with Candida tropicalis, 0.25 µg/mL (≈ 0.575 µM); against Cryptococcus neoformans it was more than 64 µg/mL; in the experiment on Aspergillus fumigatus it was more than 64 µg/mL.

For `Fc1cc(F)c(OCc2nc3c(OCCCNCc4cccnc4)cccc3o2)c(F)c1`, the MIC80 in the experiment on Candida parapsilosis came out at 1 µg/mL (≈ 2.26 µM); against Candida albicans, 16 µg/mL (≈ 36.1 µM); against Candida tropicalis it was 1 µg/mL (≈ 2.26 µM); with Cryptococcus neoformans, 16 µg/mL (≈ 36.1 µM); with Aspergillus fumigatus, 64 µg/mL (≈ 144 µM).

As for `Fc1ccc(OCc2nc3c(OCCCNCc4cccnc4)cccc3o2)c(F)c1`, the MIC80 in the experiment on Candida parapsilosis is 0.25 µg/mL (≈ 0.588 µM); with Candida albicans, 1 µg/mL (≈ 2.35 µM); against Candida tropicalis, 1 µg/mL (≈ 2.35 µM); against Cryptococcus neoformans, 16 µg/mL (≈ 37.6 µM); against Aspergillus fumigatus, more than 64 µg/mL.

As for `CCOC(=O)c1oc2cccc(OCCCNCc3cccnc3)c2c1C`, the MIC80 worked out at 4 µg/mL (≈ 10.9 µM) with Candida parapsilosis; 4 µg/mL (≈ 10.9 µM) with Nannizzia gypsea; 1 µg/mL (≈ 2.71 µM) against Candida albicans; 4 µg/mL (≈ 10.9 µM) against Trichophyton rubrum; 1 µg/mL (≈ 2.71 µM) against Candida tropicalis; 64 µg/mL (≈ 174 µM) against Cryptococcus neoformans. For the same compound, the MIC80 against Aspergillus fumigatus is more than 64 µg/mL.

Regarding `O=C(Nc1ccc(F)c(F)c1)c1cc2c(OCCCNCc3cccnc3)cccc2[nH]1`, the MIC80 in the experiment on Nannizzia gypsea was 16 µg/mL (≈ 36.7 µM); in the experiment on Candida albicans, more than 128 µg/mL; against Trichophyton rubrum, 32 µg/mL (≈ 73.3 µM); against Cryptococcus neoformans, 128 µg/mL (≈ 293 µM); against Aspergillus fumigatus, more than 128 µg/mL.

As for `c1ccc(SCc2cc3c(OCCCNCc4cccnc4)cccc3[nH]2)cc1`, the MIC80 in the experiment with Nannizzia gypsea was 8 µg/mL (≈ 19.8 µM); with Candida albicans it was 128 µg/mL (≈ 317 µM); with Trichophyton rubrum, 64 µg/mL (≈ 159 µM); against Cryptococcus neoformans it was 64 µg/mL (≈ 159 µM); against Aspergillus fumigatus it was more than 128 µg/mL.

Source of the values: ChEMBL document CHEMBL1240460, “Design, synthesis and antifungal activity of isosteric analogues of benzoheterocyclic N-myristoyltransferase inhibitors” (2010).
